Molecular target: T1, cytochrome P450 1A2 (Homo sapiens, UniProt P05177)
T1 sequence (P05177 1-516): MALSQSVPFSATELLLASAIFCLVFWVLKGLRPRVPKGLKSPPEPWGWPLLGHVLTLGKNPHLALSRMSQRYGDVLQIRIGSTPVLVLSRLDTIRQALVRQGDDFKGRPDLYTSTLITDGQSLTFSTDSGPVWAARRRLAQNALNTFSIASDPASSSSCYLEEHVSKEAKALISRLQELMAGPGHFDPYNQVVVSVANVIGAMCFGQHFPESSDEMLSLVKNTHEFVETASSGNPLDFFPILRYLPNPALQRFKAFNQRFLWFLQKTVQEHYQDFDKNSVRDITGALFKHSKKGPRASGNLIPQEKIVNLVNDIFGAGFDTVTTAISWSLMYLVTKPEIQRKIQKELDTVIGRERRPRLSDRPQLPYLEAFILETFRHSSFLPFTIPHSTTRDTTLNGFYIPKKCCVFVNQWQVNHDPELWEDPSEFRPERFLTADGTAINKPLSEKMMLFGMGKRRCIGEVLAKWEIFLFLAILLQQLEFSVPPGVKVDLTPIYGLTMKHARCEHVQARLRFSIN
Experiment: Inhibitory activity on cytochrome P450 1A2
Assay type: in vitro ADME
Conditions: no significant inhibition

IC50 [µM]	SMILES
> 10	CC(C)S(=O)(=O)c1nn(C)cc1Nc1nc(Nc2ccc(C3CCN(C)CC3)cc2OC2CC2)ncc1Cl [Final product 40]
> 10	CC(C)CS(=O)(=O)c1nn(C)cc1Nc1nc(Nc2ccc(C3CCN(C)CC3)cc2OC2CC2)ncc1Cl [Final product 43]
> 10	CC(C)S(=O)(=O)c1nn(C2CC2)cc1Nc1nc(Nc2cc(F)c(C3CCN(C)CC3)cc2OC2CC2)ncc1Cl [Final product 46]
> 10	CC(C)S(=O)(=O)c1nn(C)cc1Nc1nc(Nc2cc(Cl)c(C3CCN(C)CC3)cc2OC2CC2)ncc1Cl [Final product 47]
> 10	Cc1cc(Nc2ncc(Cl)c(Nc3cn(C)nc3S(=O)(=O)C(C)C)n2)c(OC2CC2)cc1C1CC(C)N(C)C(C)C1 (stereo not shown) [Final product 95]
> 10	Cc1cc(Nc2ncc(Cl)c(Nc3cn(C)nc3S(=O)(=O)C(C)C)n2)c(OC2CC2)cc1C1CCN(C2COC2)CC1 [Final product 156]
> 10	CC(=O)N1CCC(c2cc(OC3CC3)c(Nc3ncc(Cl)c(Nc4cn(C)nc4S(=O)(=O)C(C)C)n3)cc2C)CC1 [Final product 160, 1-acetyl-4-(4-(5-chloro-4-(3-(isopropylsulfonyl)-1-methyl-1H-pyrazol-4-amino)pyrimidin-2-amine)-5-cyclopropoxy-2-methylphenyl)piperidine]
> 10	Cc1cc(Nc2ncc(Cl)c(Nc3cn(C)nc3S(=O)(=O)C(C)C)n2)c(OC2CC2)cc1C1CCN(C(=O)C(F)(F)F)CC1 [Final product 161, 1-trifluoroacetyl-4-(4-(5-chloro-4-(3-(isopropylsulfonyl)-1-methyl-1H-pyrazol-4-amino)pyrimidin-2-amine)-5-cyclopropoxy-2-methylphenyl)piperidine]
> 10	Cc1cc(Nc2ncc(Cl)c(Nc3cn(C)nc3S(=O)(=O)C(C)C)n2)c(OC2CC2)cc1C1CCN(C(=O)CC#N)CC1 [Final product 166, 1-cyano acetyl-4-(4-(5-chloro-4-(3-(isopropylsulfonyl)-1-methyl-1H-pyrazol-4-amino)pyrimidin-2-amine)-5-cyclopropoxy-2-methylphenyl)piperidine]
> 10	Cc1cc(Nc2ncc(Cl)c(Nc3cn(C)nc3S(=O)(=O)C(C)C)n2)c(OC2CC2)cc1C1CCN(S(C)(=O)=O)CC1 [Final product 167, 5-chloro-N^2-(2-cyclopropoxy-5-methyl-4-(1-methanesulfonyl-piperidin-4-yl)-phenyl)-N^4-(3-(isopropylsulfonyl)-1-methyl-1H-pyrazol-4-yl)pyrimidin-2,4-diamine]
> 10	CC(=O)N1CCN([C@H]2CC[C@H](c3cc(OC4CC4)c(Nc4ncc(Cl)c(Nc5cn(C)nc5S(=O)(=O)C(C)C)n4)cc3C)CC2)CC1 [Final product 204]

SMILES	IC50 [µM]
Cc1cc(Nc2ncc(Cl)c(Nc3cn(C)nc3S(=O)(=O)C(C)C)n2)c(OC2CC2)cc1C1CCN(CCO)CC1 [Final product 133, 2-(4-(4-(5-chloro-4-(3-(isopropylsulfonyl)-1-methyl-1H-pyrazol-4-amino)pyrimidin-2-amino)-5-cyclopropoxy-2-methylphenyl)piperidin-1-yl) ethanol]	> 10
Cc1cc(Nc2ncc(Cl)c(Nc3cn(C)nc3S(=O)(=O)C(C)C)n2)c(OC2CC2)cc1C1CCN(CCN(C)C)CC1 [Final product 146, 5-chloro-N^2-(2-cyclopropoxy-4-(1-(2-(dimethylamino)ethyl)piperidin-4-yl)-5-methylphenyl)-N^4-(3-(isopropylsulfonyl)-1-methyl-1H-pyrazol-4-yl)-pyrimidin-2,4-diamine]	> 10

Source: patent publication US10023593B2, “ALK kinase inhibitor, and preparation method and uses thereof” (BEIJING PEARL BIOTECHNOLOGY LIMITED LIABILITY COMPANY, priority 2014, dated 2018)
